Experimental data taken from ChEMBL document CHEMBL4038264, “Nabscessins A and B, Aminocyclitol Derivatives from Nocardia abscessus IFM 10029T” (J Nat Prod, 2017).
Converted amounts (≈) assume the structure as drawn. *1 amine or outer side, *2 acyl side, *3 side chain or, on linkers, in order; H or OH if unused. Where a SMILES comes first, the peptide text is derived from it. Bridges are numbered along the chain shown (N, C = ends). [ ]: non-standard residue; d: D form. The star is where a group is joined. hTyr(3S-OH,4S-OH,3'-OSO3H) = N[C@H](C(=O)O)[C@H](O)[C@@H](O)c1ccc(O)c(OS(=O)(=O)O)c1; Orn(4R-OH,5R-OH) = O=C([C@H](C[C@@H](O)[C@@H](O)N[*:3])N[*:1])[*:2]; Pro(3S-OH,4S-Me) = C[C@H]1CN[C@H](C(=O)O)[C@H]1O; X1 = CCCCCOc1ccc(-c2cc(-c3ccc(C(=O)*)cc3)no2)cc1; Gln(3R-OH) = NC(=O)C[C@@H](O)[C@H](N)C(=O)O; Hyp = O=C(O)[C@@H]1C[C@@H](O)CN1

Experiments:
Type in all cases: functional
[1] = tested on: Trichophyton mentagrophytes; experiment: Antifungal activity against Trichophyton mentagrophytes after 96 hrs by broth micro-dilution method
[2] = tested on: Bacillus subtilis; experiment: Antibacterial activity against Bacillus subtilis after 48 hrs by broth micro-dilution method
[3] = tested on: Candida albicans; experiment: Antifungal activity against Candida albicans after 48 hrs by broth micro-dilution method
[4] = tested on: Staphylococcus aureus; experiment: Antibacterial activity against Staphylococcus aureus after 48 hrs by broth micro-dilution method
[5] = tested on: Aspergillus niger; experiment: Antifungal activity against Aspergillus niger after 96 hrs by broth micro-dilution method
[6] = tested on: Cryptococcus neoformans; experiment: Antifungal activity against Cryptococcus neoformans after 96 hrs by broth micro-dilution method
[7] = tested on: Micrococcus luteus; experiment: Antibacterial activity against Micrococcus luteus after 48 hrs by broth micro-dilution method
[8] = tested on: Escherichia coli; experiment: Antibacterial activity against Escherichia coli after 48 hrs by broth micro-dilution method

| IC50 [1] [µg/mL] | MIC [2] [µg/mL] | IC50 [3] [µg/mL] | MIC [4] [µg/mL] | IC50 [5] [µg/mL] | IC50 [6] [µg/mL] | MIC [7] [µg/mL] | MIC [8] [µg/mL] | SMILES |
| --- | --- | --- | --- | --- | --- | --- | --- | --- |
| > 32 | > 32 | > 32 | > 32 | > 32 | 32 (≈ 69.5 µM) | > 32 | > 32 | Cc1cccc(O)c1C(=O)O[C@@H]1[C@@H](O)[C@H](O)[C@@H](NC(=O)c2cccc(O)c2)C[C@H]1OC(N)=O |
| 7.8 (≈ 16.1 µM) | < 0.1 | > 62.5 | < 0.1 | 31.3 (≈ 64.6 µM) | 7.8 (≈ 16.1 µM) | 1 (≈ 2.06 µM) | < 0.1 | NC[C@H]1O[C@H](O[C@H]2[C@H](O)[C@@H](O[C@H]3O[C@H](CO)[C@@H](O)[C@H](N)[C@H]3O)[C@H](N)C[C@@H]2N)[C@H](O)[C@@H](O)[C@@H]1O [KANAMYCIN] |
| > 32 | > 32 | > 32 | > 32 | > 32 | 16 (≈ 34.7 µM) | > 32 | > 32 | Cc1cccc(O)c1C(=O)O[C@H]1[C@H](O)[C@@H](O)[C@H](OC(N)=O)C[C@@H]1NC(=O)c1cccc(O)c1 |
| 3.9 (≈ 4.22 µM) | > 31.2 | 1 (≈ 1.08 µM) | > 31.2 | 1.8 (≈ 1.95 µM) | < 0.05 | > 31.2 | > 31.2 | C[C@@H]1[C@H](O)[C@@H](C)/C=C/C=C/C=C/C=C/C=C/C=C/C=C/[C@H](O[C@@H]2O[C@H](C)[C@@H](O)[C@H](N)[C@@H]2O)C[C@@H]2O[C@](O)(C[C@@H](O)C[C@@H](O)[C@H](O)CC[C@@H](O)C[C@@H](O)CC(=O)O[C@H]1C)C[C@H](O)[C@H]2C(=O)O [AMPHOTERICIN B] |

| SMILES | IC50 [1] [µg/mL] | MIC [2] [µg/mL] | IC50 [3] [µg/mL] | MIC [4] [µg/mL] | IC50 [5] [µg/mL] | IC50 [6] [µg/mL] | MIC [7] [µg/mL] | MIC [8] [µg/mL] |
| --- | --- | --- | --- | --- | --- | --- | --- | --- |
| CN[C@H]1C[C@@H](N)[C@H](O)[C@@H](O[C@@H]2O[C@H](CO)[C@H](O)[C@@H]3O[C@@]4(O[C@H]23)O[C@H]([C@@H](N)CO)[C@H](O)[C@H](O)[C@H]4O)[C@@H]1O | 1 (≈ 1.9 µM) | 2 (≈ 3.79 µM) | 3.9 (≈ 7.39 µM) | 0.5 (≈ 0.948 µM) | 1 (≈ 1.9 µM) | 3.9 (≈ 7.39 µM) | 1 (≈ 1.9 µM) | 2 (≈ 3.79 µM) |
| CCCCCOc1ccc(-c2cc(-c3ccc(C(=O)N[C@H]4C[C@@H](O)[C@@H](O)NC(=O)[C@@H]5[C@@H](O)[C@@H](C)CN5C(=O)[C@H]([C@H](O)CC(N)=O)NC(=O)[C@H]([C@H](O)[C@@H](O)c5ccc(O)c(OS(=O)(=O)O)c5)NC(=O)[C@@H]5C[C@@H](O)CN5C(=O)[C@H]([C@@H](C)O)NC4=O)cc3)no2)cc1 [MICAFUNGIN] (X1-[Orn(4R-OH,5R-OH)]T[Hyp][hTyr(3S-OH,4S-OH,3'-OSO3H)][Gln(3R-OH)][Pro(3S-OH,4S-Me)]; lactam 1-C) | < 0.1 | 0.5 (≈ 0.394 µM) | < 0.1 | 0.5 (≈ 0.394 µM) | < 0.1 | < 0.1 | 7.8 (≈ 6.14 µM) | > 62.5 |
